# pIC50: −log10 of the molar value. Values joined by “and” are separate entries in the source; they are usually repeats but may differ in a detail not shown here. Identical values can stand only once. Like-named read-outs stand apart in the source and are kept apart here.
# Assays:
# [1] = system: Hsc-39 human gastric tumor xenograft; test: Hsc-39 human gastric tumor xenograft model; type: in vivo
# Method: (§2) Specifically, gastric cancer cell lines MKN-45 and Hsc-39 were tested.
# [2] = system: NCI-H441 NSCLC human tumor xenograft; test: NCI-H441 human lung tumor xenograft model; type: in vivo; conditions: for BW loss: on day 4
# Method: Erlotinib was administered daily at 100 mg/kg or 50 mg/kg orally, five days a week for four weeks.
# Gefitinib was administered daily at 50 mg/kg orally, five days a week for four weeks.
# [3] = system: MKN-45 human gastric tumor xenograft; type: in vivo; conditions: for BW loss: on day 21
# Method: 5-FU was administered daily at 10 mg/kg intravenously, five days a week for two weeks. TS-1 was administered daily at 10 mg/kg orally, five days a week for two weeks. Capecitabine was administered daily at 360 mg/kg orally, five days a week for two weeks. CDDP was administered weekly at 5 mg/kg intravenously for two weeks.
# c-Met [4] = target: T1, c-Met (Homo sapiens, UniProt P08581); test: c-Met biochemical assays
# PC-3 cells = test: 72 h MTT proliferation assay, equipotent fixed-ratio combination, isobologram analysis (Calcusyn)
# Method: (§3) Cell culture and reagents: NCI-H441, PC-3, MIA PaCa-2, HeLa, HT-29 and A549 cancer cell lines (American Type Culture Collection) were cultured in Dulbecco's modified Eagle's medium containing 10% fetal bovine serum, 100 units/mL penicillin, 100 g/mL streptomycin, and 2 mM L-glutamine.
# (§4) Duplicate independent experiments were performed for each cell line/drug combination. Data were then analyzed by Calcusyn™ (Biosoft, Cambridge, UK) data analysis software.
# (§5) Cell survival analysis. In some experiments, cell survival was determined by the 3-(4,5-dimethylthiazol-2-yl)-2,5-diphenyl tetrazolium bromide (MTT) assay. Briefly, cells were plated in a 96-well plate at 5-10,000 cells per well, cultured for 24 hours in complete growth medium, and then treated with various drugs and drug combinations for 72 hours. […] Data were normalized to untreated controls and analyzed with Microsoft Excel.
# (§6) Median effect plots and isobolograms were performed for each experiment.
# [5] = system: subcutaneous NCI-H522 NSCLC tumors; conditions: for tolerability: mouse, in vivo, po
# Method: All regimens were orally administered once daily for 21 days. Tumor sizes were evaluated periodically during treatment at the indicated days post-inoculation.
# HT29 colon cancer cells = test: 72 h MTT proliferation assay, equipotent fixed-ratio combination, isobologram analysis (Calcusyn); type: cell-based; conditions: Homo sapiens
# Text: (§1) Erlotinib is an inhibitor of the epidermal growth factor receptor and is indicated for the treatment of patients with locally advanced or metastatic non-small cell lung cancer after failure of at least one prior chemotherapy regimen, and is indicated for the first-line treatment of patients with locally advanced, unresectable or metastatic pancreatic cancer.
# Gefitinib is an inhibitor of the EGF receptor.
# [6] = system: MIA PaCa-2 pancreatic tumor cells; test: as above
# Method: as §3, §4, §5, §6
# c-Met [7] = target: T1, c-Met; test: c-Met cell-based assays; conditions: a number of cell-based assays
# [8] = system: MKN-45 human gastric tumor xenograft; test: MKN-45 human gastric tumor xenograft model (Example 88)
# Method: as §2
# [9] = system: NCI-H441 non-small cell lung cancer cells; test: 72 h MTT proliferation assay, equipotent fixed-ratio combination, isobologram analysis (Calcusyn); type: cell-based, human
# Text: as §1
# DU-145 = test: 72 hr MTS assay, combination index by CalcuSyn; type: cell-based, human; conditions: DU-145 (Prostate), chemotherapeutic agent combined with Agent A
# 22RV1 = test: 72 hr MTS assay, combination index by CalcuSyn; type: cell-based, human; conditions: 22RV1 (Prostate), chemotherapeutic agent combined with Agent A
# AsPC-1 = test: 72 hr MTS cytotoxicity assay, combination with gemcitabine; type: cell-based, human; conditions: AsPC-1 (Pancreatic), chemotherapeutic agent combined with Agent A
# Method: (§7) MIA PaCa-2 (also referred to as PACA2), PANC-1, CFPAC-1, and Hs766T human pancreatic cell lines were maintained in DMEM supplemented with 10% fetal bovine serum (FBS), penicillin, streptomycin, and fungizone. AsPC-1 cells were maintained in RPMI supplemented with 10% FBS, penicillin, streptomycin, and fungizone. HPAF-II cells were maintained in MEM supplemented with 10% FBS, penicillin, streptomycin, and fungizone. […] MTS reagent (Promega, Madison, Wis.) was added to each well and plates were incubated for 4 hr at 37° C.
# PANC-1 = test: as above; type: cell-based, human; conditions: PANC-1 (Pancreatic), chemotherapeutic agent combined with Agent A
# Method: as §7
# HPAF-II = test: as above; type: cell-based, human; conditions: HPAF-II (Pancreatic), chemotherapeutic agent combined with Agent A
# Method: as §7
# [10] = Agent A 300 mg/kg p.o. qd × 5 × 2, on day 10
# [11] = Agent A 300 mg/kg p.o. qd × 5 × 2
# [12] = Homo sapiens, PC-3, 72 h, PC-3, 72 h, single agents and fixed-ratio combination
# [13] = Homo sapiens, PC-3, read-out: IC50, predicted, PC-3 cells, predicted value used to set the ratio
# [14] = Homo sapiens, MIA PaCa-2, read-out: IC50, predicted, MIA PaCa-2 cells, predicted value used to set the ratio
# [15] = Homo sapiens, NCI-H441, NCI-H441 NSCLC cells, predicted value used to set the ratio, read-out: IC50, predicted
# [16] = Capecitabine 360 mg/kg p.o. qd × 5 × 2
# [17] = Erlotinib 50 mg/kg p.o. qd × 5 × 4
# [18] = Erlotinib 100 mg/kg p.o. qd × 5 × 4
# [19] = Gefitinib 50 mg/kg p.o. qd × 5 × 4
# T1 sequence (P08581 25-1390): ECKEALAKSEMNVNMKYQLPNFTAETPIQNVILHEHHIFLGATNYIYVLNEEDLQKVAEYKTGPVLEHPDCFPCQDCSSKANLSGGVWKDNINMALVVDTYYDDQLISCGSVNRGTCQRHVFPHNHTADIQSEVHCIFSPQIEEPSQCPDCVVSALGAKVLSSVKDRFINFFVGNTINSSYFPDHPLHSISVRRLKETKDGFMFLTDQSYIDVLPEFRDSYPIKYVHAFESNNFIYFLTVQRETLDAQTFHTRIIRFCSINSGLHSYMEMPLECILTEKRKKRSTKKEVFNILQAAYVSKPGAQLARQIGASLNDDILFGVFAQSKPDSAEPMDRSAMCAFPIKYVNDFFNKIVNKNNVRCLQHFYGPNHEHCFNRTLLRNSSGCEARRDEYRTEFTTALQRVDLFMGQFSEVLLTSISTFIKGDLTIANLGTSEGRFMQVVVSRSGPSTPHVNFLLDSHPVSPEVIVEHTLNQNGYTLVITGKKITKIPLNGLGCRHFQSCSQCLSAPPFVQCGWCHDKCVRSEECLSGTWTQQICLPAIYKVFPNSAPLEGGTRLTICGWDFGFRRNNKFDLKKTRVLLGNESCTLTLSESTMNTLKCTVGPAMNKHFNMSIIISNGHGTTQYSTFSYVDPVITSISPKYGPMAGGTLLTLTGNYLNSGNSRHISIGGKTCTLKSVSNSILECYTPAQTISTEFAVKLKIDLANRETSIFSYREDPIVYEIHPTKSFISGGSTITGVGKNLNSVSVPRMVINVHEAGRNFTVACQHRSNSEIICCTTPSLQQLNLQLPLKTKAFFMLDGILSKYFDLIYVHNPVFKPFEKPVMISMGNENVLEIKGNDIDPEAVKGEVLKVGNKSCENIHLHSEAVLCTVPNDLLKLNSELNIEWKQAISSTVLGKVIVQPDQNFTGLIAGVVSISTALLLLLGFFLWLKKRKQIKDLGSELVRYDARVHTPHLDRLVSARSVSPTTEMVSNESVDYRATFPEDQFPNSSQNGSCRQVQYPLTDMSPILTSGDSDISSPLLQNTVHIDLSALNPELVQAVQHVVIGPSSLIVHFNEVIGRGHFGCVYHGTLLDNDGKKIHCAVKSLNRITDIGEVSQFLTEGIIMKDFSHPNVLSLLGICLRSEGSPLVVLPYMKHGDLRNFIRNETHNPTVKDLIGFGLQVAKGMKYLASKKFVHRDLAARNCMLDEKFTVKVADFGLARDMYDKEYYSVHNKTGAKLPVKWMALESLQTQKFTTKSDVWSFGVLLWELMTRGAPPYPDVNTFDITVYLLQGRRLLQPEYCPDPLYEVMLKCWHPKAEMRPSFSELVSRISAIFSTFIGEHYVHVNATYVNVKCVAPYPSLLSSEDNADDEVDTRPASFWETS
smiles,measurement,setting,value
"COc1cccc([C@@H]2C(=O)NC(=O)[C@H]2c2cn3c4c(cccc24)CCC3)c1 (racemic) [Example 68, (±)-Trans-3-(5,6-dihydro-4H-pyrrolo[3,2,1-ij]quinolin-1-yl)-4-(3-methoxyphenyl)pyrrolidine-2,5-dione]",melting point,,87 to 91 °C
"O=C1NC(=O)[C@@H](c2cn3c4c(cccc24)CCC3)[C@@H]1c1cccc(O)c1 (racemic) [Example 69, (±)-Trans-3-(5,6-dihydro-4H-pyrrolo[3,2,1-ij]quinolin-1-yl)-4-(3-hydroxyphenyl)pyrrolidine-2,5-dione]",melting point,,108 to 110 °C
"O=C1NC(=O)[C@@H](c2cn3c4c(cccc24)CCC3)[C@@H]1c1ccc(F)cc1 (racemic) [Example 70, (±)-Trans-3-(5,6-dihydro-4H-pyrrolo[3,2,1-ij]quinolin-1-yl)-4-(4-fluorophenyl)pyrrolidine-2,5-dione]",melting point,,208 to 210 °C
"O=C1NC(=O)[C@@H](c2cn3c4c(cccc24)CCC3)[C@@H]1c1ccc(O)cc1 (racemic) [Example 72, (±)-Trans-3-(5,6-dihydro-4H-pyrrolo[3,2,1-ij]quinolin-1-yl)-4-(4-hydroxyphenyl)pyrrolidine-2,5-dione]",melting point,,105 to 107 °C
"O=C1NC(=O)[C@@H](c2cn3c4c(cccc24)CCC3)[C@@H]1c1c[nH]c2ccccc12 (single isomer, unassigned) [Agent A]",T/C Min,[1]; [10],0.63 (10)
same,Mortality,[2]; Agent A 300 mg/kg p.o. qd × 5 × 4,0/5
same,T/C Min,"[2]; Agent A 300 mg/kg p.o. qd × 5 × 4, on day 17",0.52 (17)
same,Mortality,[3]; [11],0/5
same,T/C Min,"[3]; Agent A 300 mg/kg p.o. qd × 5 × 2, on day 4",0.50 (4)
same,BW loss,[3]; [11],−1.7 (21) g
same,c-Met activity,c-Met [4],inhibit c-Met activity
same,pIC50,PC-3 cells; [12],6.06
same,pIC50,PC-3 cells; [13],6.00
same,pIC50,"PC-3 cells; PC-3, 72 h, single agents and fixed-ratio combination",6.26
same,tolerability,[5],well-tolerated
same,effects on body weight gain,"[5]; oral gavage once daily for 21 days, all cohorts",no adverse effects on body weight gain
same,pIC50,"HT29 colon cancer cells; HT-29, 72 h, HT29, 72 h, single agents and fixed-ratio combination, read-out: IC50",6.75
same,pIC50,"HT29 colon cancer cells; HT-29, HT29 cells, predicted value used to set the ratio, read-out: IC50, predicted",6.82
same,pIC50,[6]; [14],6.82
same,c-Met activity,c-Met [7],inhibit c-Met activity
same,Mortality,[8]; [11],0/5
same,BW loss,[8]; [10],−1.3 (10) g
same,T/C Min,"[8]; Agent A 300 mg/kg p.o. qd × 5 × 2, on day 15",0.61 (15)
same,pIC50,[9]; [15],6.52
"CCCCCOC(=O)Nc1nc(=O)n([C@@H]2O[C@H](C)[C@@H](O)[C@H]2O)cc1F [Capecitabine, capecitabine]",Mortality,[3]; [16],0/5
same,T/C Min,"[3]; Capecitabine 360 mg/kg p.o. qd × 5 × 2, on day 14",0.42 (14)
same,BW loss,[3]; [16],−1.4 (21) g
"N.N.[Cl][Pt][Cl] [Cisplatin, cisplatin]",Mortality,[3]; Cisplatin 5 mg/kg i.v. Weekly × 2,0/5
same,T/C Min,"[3]; Cisplatin 5 mg/kg i.v. Weekly × 2, on day 10",0.55 (10)
same,pIC50,"[6]; MIA PaCa-2, 72 h, single agents and fixed-ratio combination",5.47 and 5.42
"CC(=O)O[C@@]12CO[C@@H]1C[C@H](O)[C@@]1(C)C(=O)[C@H](O)C3=C(C)[C@@H](OC(=O)[C@H](O)[C@@H](NC(=O)OC(C)(C)C)c4ccccc4)C[C@@](O)([C@@H](OC(=O)c4ccccc4)[C@H]21)C3(C)C [Docetaxel, docetaxel]",T/C Min,"[1]; Docetaxel 7.5 mg/kg i.v. single, on day 17",0.46 (17)
same,T/C Min,"[1]; Docetaxel 15 mg/kg i.v. single, on day 17",0.40 (17)
same,Combination Conclusion,DU-145,Synergism
same,Combination Index Values at ED50,DU-145,0.7
same,Combination Conclusion,22RV1,Synergism
same,Combination Index Values at ED50,22RV1,0.7
same,pIC50,PC-3 cells; [12],8.22
same,pIC50,PC-3 cells; [13],~8.30
same,pIC50,"PC-3 cells; PC-3, 72 h, single agents and fixed-ratio combination, listed as Taxotere",8.46
same,pIC50,"[6]; Homo sapiens, MIA PaCa-2, 72 h, MIA PaCa-2, 72 h, single agents and fixed-ratio combination",8.29
same,pIC50,[6]; [14],~8.30
same,Mortality,[8]; Docetaxel 7.5 mg/kg i.v. single,0/5
same,T/C Min,"[8]; Docetaxel 7.5 mg/kg i.v. single, on day 15",0.63 (15)
same,Mortality,[8]; Docetaxel 15 mg/kg i.v. single,0/5
same,T/C Min,"[8]; Docetaxel 15 mg/kg i.v. single, on day 7",0.68 (7)
"C#Cc1cccc(Nc2ncnc3cc(OCCOC)c(OCCOC)cc23)c1 [Erlotinib, erlotinib]",Mortality,[2]; [17],0/5
same,BW loss,[2]; [17],−0.6 (4) g
same,T/C Min,"[2]; Erlotinib 50 mg/kg p.o. qd × 5 × 4, on day 17",0.59 (17)
same,Mortality,[2]; [18],0/5
same,BW loss,[2]; [18],−1.0 (4) g
same,T/C Min,"[2]; Erlotinib 100 mg/kg p.o. qd × 5 × 4, on day 17",0.50 (17)
same,pIC50,"HT29 colon cancer cells; HT-29, HT29, 72 h, single agents and fixed-ratio combination, read-out: IC50",4.25
same,pIC50,"[9]; Homo sapiens, NCI-H441, 72 h, NCI-H441, 72 h, single agents and fixed-ratio combination, read-out: IC50",5.45
same,pIC50,[9]; [15],~6.00
same,pIC50,"[9]; NCI-H441, 72 h, single agents and fixed-ratio combination, read-out: IC50",5.50
"O=c1[nH]cc(F)c(=O)[nH]1 [Example 5-FU, fluorouracil]",Mortality,[3]; 5-FU 10 mg/kg i.v. qd × 5 × 2,0/5
same,T/C Min,"[3]; 5-FU 10 mg/kg i.v. qd × 5 × 2, on day 14",0.63 (14)
same,BW loss,[3]; 5-FU 10 mg/kg i.v. qd × 5 × 2,−3.4 (21) g
"O=C1NC(=O)C(c2cn3c4c(cccc24)CCC3)=C1c1ccc(OCc2ccccc2)cc1 [Example 66, 3-[4-(benzyloxy)phenyl]-4-(5,6-dihydro-4H-pyrrolo[3,2,1-ij]quinolin-1-yl)-1H-pyrrole-2,5-dione]",melting point,,262 to 265 °C
"O=C1NC(=O)C(c2cn3c4c(cccc24)CCC3)=C1c1ccc(F)cc1 [Example 67, 3-(5,6-dihydro-4H-pyrrolo[3,2,1-ij]quinolin-1-yl)-4-(4-fluorophenyl)-1H-pyrrole-2,5-dione]",melting point,,234 to 235 °C
"COc1cc2ncnc(Nc3ccc(F)c(Cl)c3)c2cc1OCCCN1CCOCC1 [Gefitinib, gefitinib]",Mortality,[2]; [19],0/5
same,BW loss,[2]; [19],−0.5 (4) g
same,T/C Min,"[2]; Gefitinib 50 mg/kg p.o. qd × 5 × 4, on day 21",0.60 (21)
"Nc1ccn([C@@H]2O[C@H](CO)[C@@H](O)C2(F)F)c(=O)n1 [Gemcitabine, gemcitabine]",Combination Conclusion,AsPC-1,Synergism
same,Combination Index Values at ED50,AsPC-1,0.6
same,Combination Conclusion,PANC-1,Synergism
same,Combination Index Values at ED50,PANC-1,0.7
same,Combination Conclusion,HPAF-II,Synergism
same,Combination Index Values at ED50,HPAF-II,0.2
CNC(=O)c1cc(Oc2ccc(NC(=O)Nc3ccc(Cl)c(C(F)(F)F)c3)cc2)ccn1 [sorafenib],tolerability,[5],well-tolerated

# Source: US9642847B2, “Combinational compositions and methods for treatment of cancer” (ArQule, Inc., priority 2009, dated 2017)
